Reference: PubChem BioAssay AID248 (DTP/NCI, 2004)
Several values for one entry are separate records, joined by “and”; a condition that tells them apart may be missing. Equal entries are not always repeated. Inconclusive results and toxic doses are left out.

Tested on: L1210 leukemia ip in BDF1 mice, survival T/C
Test: NCI In Vivo Anticancer Drug Screen. Data for tumor model L1210 Leukemia (intraperitoneal) in B6D2F1 (BDF1) mice
Conditions: endpoint: mean survival time, higher = longer survival
Outline: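 Value reflects the ratio of survival in compound-treated mice to survival in vehicle-treated controls, with both groups carrying the same transplanted tumor.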

[1] = dose: 100.0 mg/kg/injection, schedule: Q01DX009 (ip), vehicle: saline
[2] = dose: 100.0 mg/kg/injection, schedule: Q04DX003 (ip), vehicle: saline
[3] = dose: 200.0 mg/kg/injection, schedule: Q01DX009 (ip), vehicle: saline
[4] = dose: 200.0 mg/kg/injection, schedule: Q04DX003 (ip), vehicle: saline
[5] = dose: 100.0 mg/kg/injection, schedule: Q04DX003 (ip), vehicle: saline with Tween-80
[6] = dose: 200.0 mg/kg/injection, schedule: Q04DX003 (ip), vehicle: saline with Tween-80
[7] = dose: 400.0 mg/kg/injection, schedule: Q01DX009 (ip), vehicle: saline
[8] = dose: 400.0 mg/kg/injection, schedule: Q04DX003 (ip), vehicle: saline with Tween-80
[9] = dose: 50.0 mg/kg/injection, schedule: Q01DX001 (ip), vehicle: saline
[10] = dose: 100.0 mg/kg/injection, schedule: Q01DX001 (ip), vehicle: saline
[11] = dose: 200.0 mg/kg/injection, schedule: Q01DX001 (ip), vehicle: saline
[12] = dose: 400.0 mg/kg/injection, schedule: Q01DX001 (ip), vehicle: saline
[13] = dose: 25.0 mg/kg/injection, schedule: Q04DX002 (ip), vehicle: saline with Tween-80
[14] = dose: 50.0 mg/kg/injection, schedule: Q04DX002 (ip), vehicle: saline with Tween-80
[15] = dose: 200.0 mg/kg/injection, schedule: Q01DX001 (ip), vehicle: saline with Tween-80
[16] = dose: 400.0 mg/kg/injection, schedule: Q01DX001 (ip), vehicle: saline with Tween-80
[17] = dose: 100.0 mg/kg/injection, schedule: Q04DX003 (ip), vehicle: other
[18] = dose: 200.0 mg/kg/injection, schedule: Q04DX003 (ip), vehicle: other
[19] = dose: 400.0 mg/kg/injection, schedule: Q04DX003 (ip), vehicle: other
[20] = dose: 50.0 mg/kg/injection, schedule: Q01DX009 (ip), vehicle: saline with Tween-80
[21] = dose: 100.0 mg/kg/injection, schedule: Q01DX009 (ip), vehicle: saline with Tween-80

SMILES: OCC(O)C1CCCCN1 (stereo not given)
- T/C [1]: 91 % of control
- T/C [2]: 97 % of control
- T/C [3]: 100 % of control
- T/C [4]: 97 % of control
- T/C (dose: 400.0 mg/kg/injection, schedule: Q04DX003 (ip), vehicle: saline): 97 % of control

SMILES: CN(C)CCCC(=O)O
- T/C [1]: 89 % of control
- T/C [5]: 106 % of control
- T/C [3]: 97 % of control
- T/C [6]: 95 % of control
- T/C [7]: 95 % of control
- T/C [8]: 88 % of control

SMILES: Nc1nc(SCc2ccccc2)cc(C(=O)O)n1
- T/C (dose: 25.0 mg/kg/injection, schedule: Q01DX Z (ip), vehicle: methylcellulose (MC)): 92 % of control
- T/C (dose: 50.0 mg/kg/injection, schedule: Q01DX Z (ip), vehicle: methylcellulose (MC)): 101 % of control

SMILES: C[n+]1ccsn1
- T/C (dose: 100.0 mg/kg/injection, schedule: Q01DX001 (ip), vehicle: carboxymethylcellulose (CMC)): 95 % of control
- T/C (dose: 200.0 mg/kg/injection, schedule: Q01DX001 (ip), vehicle: carboxymethylcellulose (CMC)): 93 % of control
- T/C (dose: 400.0 mg/kg/injection, schedule: Q01DX001 (ip), vehicle: carboxymethylcellulose (CMC)): 95 % of control

SMILES: O=C(C(=Nc1ccccc1)C(=Nc1ccccc1)C(=O)c1ccccc1)c1ccccc1
- T/C (dose: 100.0 mg/kg/injection, schedule: Q01DX001 (ip), vehicle: Klucel (hydroxypropylcellulose) (HPC)): 97 % of control
- T/C (dose: 200.0 mg/kg/injection, schedule: Q01DX001 (ip), vehicle: Klucel (hydroxypropylcellulose) (HPC)): 98 % of control
- T/C (dose: 400.0 mg/kg/injection, schedule: Q01DX001 (ip), vehicle: Klucel (hydroxypropylcellulose) (HPC)): 95 % of control

SMILES: Nc1nc2c(nc(Br)n2C2CC(O)C(CO)O2)c(=O)[nH]1 (stereo not given)
- T/C [9]: 102 % of control
- T/C [10]: 102 % of control
- T/C [11]: 98 % of control
- T/C [12]: 98 % of control

SMILES: OC(C(c1ccccc1)N1CCOCC1)C(O)(c1ccccc1)c1ccccc1 (stereo not given)
- T/C [10]: 106 % of control
- T/C [11]: 94 % of control
- T/C [12]: 97 % of control

SMILES: O=C1CCC(=O)N1[N+](=O)[O-]
- T/C [9]: 95 % of control and 89 % of control
- T/C [10]: 97 % of control and 101 % of control
- T/C [11]: 103 % of control and 107 % of control

SMILES: COc1ccc(C(C)(C)C#N)cc1
- T/C [9]: 102 % of control
- T/C [10]: 100 % of control
- T/C [11]: 100 % of control
- T/C [12]: 97 % of control

SMILES: O=C(O)c1c(Cl)c([N+](=O)[O-])cc([N+](=O)[O-])c1Cl
- T/C (dose: 50.0 mg/kg/injection, schedule: Q01DX009 (ip), vehicle: saline): 92 % of control
- T/C [1]: 92 % of control
- T/C [2]: 103 % of control
- T/C [3]: 92 % of control
- T/C [4]: 99 % of control

SMILES: CCCCOP(=O)(OCCCC)c1ccccc1OC
- T/C [13]: 99 % of control
- T/C [14]: 99 % of control
- T/C (dose: 100.0 mg/kg/injection, schedule: Q04DX002 (ip), vehicle: saline with Tween-80): 96 % of control and 89 % of control

SMILES: O=C1C(c2ccccc2)=C(c2ccccc2)c2c1c(-c1ccccc1)c(-c1ccccc1)c(-c1ccccc1)c2-c1ccccc1
- T/C (dose: 6.25 mg/kg/injection, schedule: Q01DX001 (ip), vehicle: saline with Tween-80): 98 % of control
- T/C (dose: 12.5 mg/kg/injection, schedule: Q01DX001 (ip), vehicle: saline with Tween-80): 98 % of control
- T/C (dose: 25.0 mg/kg/injection, schedule: Q01DX001 (ip), vehicle: saline with Tween-80): 89 % of control and 91 % of control
- T/C [15]: 90 % of control
- T/C [16]: 87 % of control

SMILES: O=C(NCCCCN1CC1)C(=O)NCCCCN1CC1
- T/C (dose: 1.5 mg/kg/injection, schedule: Q04DX003 (ip), vehicle: Klucel (hydroxypropylcellulose) (HPC)): 108 % of control
- T/C (dose: 3.0 mg/kg/injection, schedule: Q04DX003 (ip), vehicle: Klucel (hydroxypropylcellulose) (HPC)): 118 % of control
- T/C (dose: 8.0 mg/kg/injection, schedule: Q04DX003 (ip), vehicle: Klucel (hydroxypropylcellulose) (HPC)): 155 % of control
- T/C (dose: 18.0 mg/kg/injection, schedule: Q04DX003 (ip), vehicle: Klucel (hydroxypropylcellulose) (HPC)): 177 % of control

SMILES: O=S(=O)(/N=C1C=C/C(=N\S(=O)(=O)c2ccccc2)C(Sc2ccccc2)=C\1)c1ccccc1
- T/C (dose: 100.0 mg/kg/injection, schedule: Q01DX001 (ip), vehicle: saline with Tween-80): 91 % of control
- T/C [15]: 94 % of control
- T/C [16]: 105 % of control

SMILES: CCCCCCCCCC(CCCCCCCC(=O)O)NC(C)=O (stereo not given)
- T/C [9]: 97 % of control
- T/C [10]: 94 % of control
- T/C [11]: 94 % of control
- T/C [12]: 94 % of control

SMILES: Cc1n[n+]([O-])c(C)cc1[N+](=O)[O-]
- T/C (dose: 100.0 mg/kg/injection, schedule: Q04DX002 (ip), vehicle: Klucel (hydroxypropylcellulose) (HPC)): 112 % of control
- T/C (dose: 200.0 mg/kg/injection, schedule: Q04DX002 (ip), vehicle: Klucel (hydroxypropylcellulose) (HPC)): 101 % of control

SMILES: Cc1ccc(C)c(NC(=O)Nc2ccccc2Cl)c1
- T/C (dose: 100.0 mg/kg/injection, schedule: Q01DX009 (ip), vehicle: gum acacia): 90 % of control
- T/C (dose: 100.0 mg/kg/injection, schedule: Q04DX003 (ip), vehicle: gum acacia): 93 % of control
- T/C (dose: 200.0 mg/kg/injection, schedule: Q01DX009 (ip), vehicle: gum acacia): 90 % of control
- T/C (dose: 200.0 mg/kg/injection, schedule: Q04DX003 (ip), vehicle: gum acacia): 91 % of control
- T/C (dose: 400.0 mg/kg/injection, schedule: Q01DX009 (ip), vehicle: gum acacia): 90 % of control
- T/C (dose: 400.0 mg/kg/injection, schedule: Q04DX003 (ip), vehicle: gum acacia): 94 % of control

SMILES: OCCSc1ccccc1
- T/C [17]: 97 % of control
- T/C [18]: 103 % of control
- T/C [19]: 93 % of control

SMILES: O=C(CCl)Nc1cccc2c1C(=O)c1c(c(O)c3ccccc3c1O)C2=O
- T/C [5]: 94 % of control
- T/C [6]: 92 % of control
- T/C [8]: 90 % of control

SMILES: Cc1ccc(S(=O)(=O)/N=C(\N)CCl)cc1
- T/C (dose: 12.5 mg/kg/injection, schedule: Q04DX002 (ip), vehicle: saline with Tween-80): 98 % of control
- T/C [13]: 120 % of control
- T/C [14]: 95 % of control

SMILES: O=C1SC(c2ccccc2)(c2ccccc2)c2cscc21
- T/C [20]: 86 % of control
- T/C [21]: 86 % of control

SMILES: CCCCOC(=O)CC1CCCN1C (stereo not given)
- T/C [2]: 110 % of control
- T/C [4]: 101 % of control

SMILES: Cc1c(Cl)cccc1NC(=O)Nc1ccccc1
- T/C (dose: 25.0 mg/kg/injection, schedule: Q01DX009 (ip), vehicle: DMSO): 95 % of control
- T/C (dose: 50.0 mg/kg/injection, schedule: Q01DX009 (ip), vehicle: DMSO): 95 % of control
- T/C (dose: 100.0 mg/kg/injection, schedule: Q01DX009 (ip), vehicle: DMSO): 88 % of control
- T/C (dose: 100.0 mg/kg/injection, schedule: Q04DX003 (sc), vehicle: olive oil, sesame oil, peanut oil): 95 % of control
- T/C (dose: 200.0 mg/kg/injection, schedule: Q04DX003 (sc), vehicle: olive oil, sesame oil, peanut oil): 99 % of control
- T/C (dose: 400.0 mg/kg/injection, schedule: Q04DX003 (sc), vehicle: olive oil, sesame oil, peanut oil): 114 % of control

SMILES: NC(=O)Nc1cccc(C(=O)O)c1C(=O)O
- T/C (dose: 100.0 mg/kg/injection, schedule: Q01DX001 (ip), vehicle: other): 101 % of control
- T/C [17]: 102 % of control
- T/C (dose: 200.0 mg/kg/injection, schedule: Q01DX001 (ip), vehicle: other): 101 % of control
- T/C [18]: 98 % of control
- T/C (dose: 400.0 mg/kg/injection, schedule: Q01DX001 (ip), vehicle: other): 107 % of control
- T/C [19]: 98 % of control

SMILES: c1ccc2c(C3CO3)c3ccc4ccccc4c3cc2c1 (stereo not given)
- T/C (dose: 100.0 mg/kg/injection, schedule: Q04DX002 (ip), vehicle: other): 113 % of control
- T/C (dose: 200.0 mg/kg/injection, schedule: Q04DX002 (ip), vehicle: other): 179 % of control
- T/C (dose: 400.0 mg/kg/injection, schedule: Q04DX002 (ip), vehicle: other): 120 % of control

SMILES: Cc1nc(N)c(Cl)nc1C
- T/C [20]: 96 % of control
- T/C [21]: 100 % of control and 104 % of control
- T/C [5]: 102 % of control
- T/C (dose: 200.0 mg/kg/injection, schedule: Q01DX009 (ip), vehicle: saline with Tween-80): 97 % of control and 98 % of control
- T/C [6]: 96 % of control
- T/C [8]: 88 % of control

SMILES: CC(C)(C)/C([O-])=N/[N+](C)(C)C
- T/C [10]: 108 % of control
- T/C [11]: 97 % of control
- T/C [12]: 101 % of control

SMILES: C=Cc1cccc[n+]1[O-]
- T/C [1]: 115 % of control
- T/C [3]: 102 % of control
- T/C [7]: 102 % of control
